Here are results for 1 substance from EP0947200B1, “Compositions comprising Cetrorelix acetate for the treatment of female infertility and gonadal protection” (Zentaris IVF GmbH, priority 1993, dated 2015).

The nature of data set [1]: Solubility and hydrolytic stability in acetic acid. In kind it is physicochemical. The source says:
Überraschenderweise stellte sich nun heraus, daß man Cetrorelix in 30 %iger VolumenNolumen Essigsäure gut lösen kann. Diese Lösung wird anschließend auf eine Endkonzentration von 3 % Cetrorelix mit Wasser für Injektionszwecke aufgefüllt und Mannit hinzugegeben. […] Lösungen, die nach dieser Methode hergestellt werden, […]

Data set [2] is classed as physicochemical. On the procedure:
Gemäß vorliegender Anmeldung soll der Wirkstoff subcutan in einer Dosis von 0,1 bis 20 mg appliziert werden können. Die wässrigen Lösungen des Dekapeptids sind instabil, eine Autoklavierung im Endbehälter ist nicht möglich. […] Um eine injizierbare Lösung zu erhalten, war daher die Entwicklung eines Lyophilisats erforderlich. Allerdings ist die Menge des Wirkstoffes in der zu lyophilisierenden Lösung so gering, dass bei niedrigen Wirkstoffkonzentrationen nur ein lockerer Flaum an der Glaswand der Ampulle nach der Trocknung der hilfsstofffreien Lösung resultiert, der mit dem zur Sterilisierung benutzten Wasserdampfstrom aus dem Vial ausgetragen wird. Es ist also erforderlich, einen Gerüstbildner einzusetzen, der einen stabilen Kuchen bildet. Bei hohen Konzentrationen kann auf diesen Hilfsstoff verzichtet werden. Als Gerüstbildner kommen folgende Hilfsstoffe infrage: Hexite, insbesondere Mannit, Glucit, Sorbit, wie D-Sorbit, Dulcit, Allit, Altrit (zum Beispiel D- und L-Altrit), Idit (zum Beispiel D- und L-Idit), deren optisch aktive Formen (D- beziehungsweise L-Formen) sowie die entsprechenden Racemate. Insbesondere wird Mannit, wie D-Mannit, L-Mannit, DL-Mannit, Sorbit und/oder Dulcit verwendet, und zwar hiervon vorzugsweise D-Mannit. Als Hexit können auch Mischungen der genannten Hexite verwendet werden, zum Beispiel Mischungen von Mannit und Sorbit und/oder Dulcit. […]

The subject of data set [3] is endogene Hormonproduktion (LH-FSH, Estradiol). In kind it is in vivo, Patientinnen. The source says:
Es hat sich nun herausgestellt, daß der Antagonist Cetrorelix gerade bei dieser Behandlung folgende Vorteile aufweist:
Um eine totale Suppression zu erreichen, genügen bei der Behandlung mit Cetrorelix eine Behandlungsdauer von 5 Tagen. […] Darüber hinaus läßt sich in der 2. Therapiephase, der Ovulationsauslösephase, HMG einsparen. Dies stellt einen nicht unbeträchtlichen Kostenvorteil dieser in-vitro-Fertilisationsbehandlung dar. Die in-vitro-Fertilisation wird beispielsweise beim Vorliegen einer Tubenanomalie eingesetzt. Für diese Therapie ist es notwendig, den Zyklus genau zu kontrollieren und den Zeitpunkt der Ovulation möglichst genau festzulegen. Bisher wurde dies nur eingeschränkt erreicht, da durch Stimulation mit HMG/HCG der präovulatorische LH-Anstieg oft zu früh auftrat oder nicht lange genug aufrechterhalten wurde. Es ist jedoch von entscheidender Bedeutung für den Behandlungserfolg, diesen verfrühten Anstieg zu verhindern, um den Befruchtungszeitpunkt genau festlegen zu können. Dadurch wird die körperliche und psychische Belastung der Patientinnen reduziert und die Kliniklogistik optimal eingesetzt. […]

As to Cetrorelix, the “Hydrolyse der endständigen Amidgruppe” value in data set [1] (acid medium (acetic acid solution)) was “nicht festgestellt”. In data set [1] (in 30 % (volume/volume) acetic acid), the Löslichkeit result is recorded as “gut lösen”. In addition, the “Stabilität der wässrigen Lösungen” value in data set [2] was “instabil”. Further, the “Verhalten unter arzneibuchüblicher Sterilisation” value in data set [2] (pharmacopoeial sterilisation (autoclaving in final container)) is on record as “neigt unter arzneibuchüblicher Sterilisation zur Zersetzung”. Also, the “Behandlungsdauer, um eine totale Suppression zu erreichen” value in data set [3] (female patients, treatment of infertility) is reported as 5 Tagen. The Hyperstimulationssyndrom entry in data set [3] (in vivo) is “kann nicht auftreten”.
